Holding throughout (assay): growth of human tumour cells (NCI), 48 h
The subject of test [1] is HCT-116 colon.
Test [2] has as its system SK-MEL-28 melanoma.
In test [3] the test system is SK-MEL-5 melanoma.
Test [4] relates to MCF7 breast.
The test system of test [5] is RXF 393 renal.
For test [6], the system named is LOX IMVI melanoma.
The subject of test [7] is SK-OV-3 ovarian.
In test [8] the test system is M14 melanoma.
Test [9] has as its system OVCAR-8 ovarian.
The test system of test [10] is IGROV1 ovarian.

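Compound exposure: 48 hours, 5 concentrations, 96-well plates. Here, GI50 denotes the concentration required for 50% inhibition of growth. At the TGI there is no net growth.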

Regarding `CCOCc1nc2c(OC)cc(-c3nc4ccc(N5CCN(C)CC5)cc4[nH]3)c(OC)c2[nH]1`, the TGI in [1] is above 100 µM; in [2] it was 36.3 µM; in test [3], 31.6 µM; in [4] it was above 100 µM; in test [5] it was 36.2 µM; in test [6], 42.3 µM. Also, the TGI was above 100 µM in test [7], 35.3 µM in test [8], above 100 µM in test [9] and above 100 µM in test [10].
With `Nc1nc(N)c2ncn(-c3ccc(Cl)cc3)c2n1`, the TGI was above 100 µM in [1]; above 100 µM in [2]; above 100 µM in test [3]; above 100 µM in test [4]; 73.5 µM in [5]; above 100 µM in test [6]. In addition, the TGI in test [7] is 53.3 µM; in [8] it was above 100 µM; in test [9] it was above 100 µM; in [10], 96.3 µM.
With `Oc1ccc(-c2nc(-c3cccnc3)c(-c3ccc(Cl)cc3)[nH]2)cc1`, the TGI in [1] was 31.6 µM; in test [2] it was 32.1 µM; in test [3] it was 27.2 µM; in test [4] it was 24.7 µM; in [5], 26.5 µM; in [6] it was 24 µM. Also, the TGI in test [7] was found to be 26.8 µM; in test [8], 26.1 µM; in test [9] it was 28.4 µM; in test [10], 23 µM.
For the compound `NC(Cc1ccccc1)C(=O)N[C@H]1c2ccsc2/C(=N/O)[C@H]1O` (some centres undefined), the TGI in test [1], in test [2], in test [3], in [4], in test [5] and in [6] was above 100 µM throughout. Moreover, the TGI in test [7], in [8], in test [9] and in [10] was above 100 µM each time.
For `COc1cccc(-c2ccc3c4c2O[C@H]2C(=O)CC[C@@]5(O)[C@@H](C3)N(CC3CC3)CC[C@]425)c1`, the TGI is 33.2 µM in [1]; above 100 µM in [2]; 28 µM in [3]; 31 µM in test [4]; 21.8 µM in [5]; 30.9 µM in test [6]. For the same compound, the TGI in test [7] is 34.5 µM; in test [8], 28.1 µM; in [9], 34.3 µM; in test [10], 44.2 µM.
In the case of `CC1OC(OC2C(O[C@H]3CC[C@@]4(C)C(=CC[C@H]5[C@@H]6C[C@@H]7O[C@]8(CC[C@@H](CO)CO8)[C@@H](C)[C@@H]7[C@@]6(C)CC[C@@H]54)C3)OC(CO)C(O)C2OC2OC(CO)C(O)C(O)C2O)C(O)C(O)C1O` (some centres undefined), the TGI was found to be 3.02 µM in test [1]; 3.46 µM in test [2]; 3.11 µM in [3]; 3.15 µM in [4]; 3.01 µM in test [5]; 3.39 µM in [6]. The TGI in test [7] amounted to 4.19 µM; in test [8] it was 4.14 µM; in [9], 3.46 µM; in [10], 4.05 µM.
With `C=CC(CCc1ccc(C(=O)OCC)cc1)c1c(N)nc(N)[nH]c1=O` (centres undefined), the TGI in test [1], in [2], in test [3], in test [4], in [5] and in test [6] was above 100 µM in each case. Moreover, the TGI in [7], in [8], in test [9] and in test [10] was above 100 µM throughout.
Consider `C[C@]12CCC(=O)O[C@H]1CCCCO2`, for which the TGI in test [1], in [2], in test [3], in test [4], in test [5] and in test [6] was above 100 µM in each case. The TGI in test [7], in [8], in test [9] and in [10] was above 100 µM throughout.
As to `C(=Nc1ccc(-c2nc3ccccc3[nH]2)cc1)c1cccs1`, the TGI in test [1], in test [2], in test [3], in test [4], in test [5] and in test [6] was above 100 µM in each case. In addition, the TGI in test [7], in test [8], in test [9] and in test [10] was above 100 µM each time.
On to `NN/C(=N\S(=O)(=O)c1cc2ccccc2s1)Nc1ccc(Cl)cc1`, for which the TGI in test [1] worked out at 30.6 µM; in [2], 75 µM; in test [3], 31.8 µM; in test [4] it was 42.4 µM; in test [5], 29.6 µM; in test [6], 38.6 µM. For the same compound, the TGI is above 100 µM in test [7], 37.9 µM in test [8], 47.9 µM in [9] and 36.4 µM in test [10].
In the case of `C[N+](C)(C)CC1CCCCCCCCCCC1=O` (centres undefined), the TGI in test [1], in test [2], in [3], in [4], in [5] and in test [6] was above 100 µM in each case. Besides, the TGI in test [7], in test [8], in [9] and in test [10] was above 100 µM in each case.
`CC(C)=CCC/C(C)=C/C=C/C(C)=C/C=C/C(C)=C/C=C/C=C(C)/C=C/C=C(C)/C=C/[C@H]1C(C(C)(C)O)CC[C@]1(C)O` (some centres undefined): the TGI in [1] came to 31.2 µM; in test [2] it was 41.9 µM; in test [3], 33.5 µM; in test [4] it was 35.5 µM; in [5] it was 45.4 µM; in [6] it was 68.3 µM. The TGI in test [7] was above 100 µM; in test [8], 91.1 µM; in test [9], 52.2 µM; in test [10], 49.5 µM.
For `CCOC(=O)N/N=C(/N)c1cccc([N+](=O)[O-])c1`, the TGI in test [1], in [2], in test [3], in test [4], in [5] and in test [6] was above 100 µM throughout. In addition, the TGI in [7], in [8], in [9] and in [10] was above 100 µM in each case.
For the compound `CCOC(=O)c1cc(C(O)P2(=O)N(CC(C)(C)C)[C@@H]3CCCC[C@H]3N2CC(C)(C)C)cn1C(=O)OC(C)(C)C` (some centres undefined), the TGI was determined as 23.2 µM in [1]; 30.3 µM in test [2]; 31.3 µM in test [3]; 51 µM in test [4]; 26.6 µM in test [5]; 31.4 µM in test [6]. For the same compound, the TGI in [7] came to 59.2 µM; in test [8] it was 29.7 µM; in test [9] it was 47.1 µM; in [10], 18.1 µM.
As to `Cc1cc(S(=O)(=O)N=C2N(Cc3ccccc3)CCN2Cc2ccccc2)c(S)cc1Cl`, the TGI in test [1], in test [2], in [3], in [4], in test [5] and in [6] was above 100 µM each time. Also, the TGI in test [7], in [8], in test [9] and in [10] was above 100 µM in each case.
Regarding `CNc1ccc(C(=O)CC(O)CCC(C)C2OC(=O)CC(O)CC(=O)CC(O)CC(O)CC(O)CC(O)CC3(O)CC(O)C(C(=O)OC)C(CC(O[C@@H]4O[C@H](C)[C@@H](O)[C@H](N)[C@@H]4O)/C=C/C=C/C=C/C=C/C=C/C=C/C=C/C2C)O3)cc1` (some centres undefined), the GI50 in test [1] is 3.46 µM; in test [2], 1.12 µM; in [3], 1.42 µM; in test [4] it was 3.18 µM; in test [5] it was 1.72 µM; in test [6], 3.3 µM. Moreover, the GI50 in test [7] is 2.66 µM; in test [8], 2.26 µM; in test [10], 2.96 µM. Also, the TGI is above 100 µM in test [1]; 2.53 µM in test [2]; 3.17 µM in test [3]; 19 µM in test [4]; 4.46 µM in [5]; above 100 µM in [6]. Besides, the TGI in test [7] stood at 6.92 µM; in test [8] it was 7.32 µM; in [10], 7.94 µM.
Take `COc1ccc(C2OC[C@H]3O[C@@H](OCc4ccccc4)[C@H](O)[C@@H](O)[C@@H]3O2)cc1` (some centres undefined): the TGI in [1], in test [2], in [3], in test [4], in test [5] and in test [6] was above 100 µM in each case. Further, the TGI in test [7], in [9] and in test [10] was above 100 µM each time.
Consider `CCOc1cn(C2CC(O)C(CO)O2)c(=O)[nH]c1=O` (centres undefined), for which the TGI in test [1], in [2], in [3], in test [4], in test [5] and in [6] was above 100 µM in each case. The TGI in test [7], in [8] and in [10] was above 100 µM throughout.
As to `COc1cc(/C=C2/C[C@H]3[C@@H]4CC=C5C[C@@H](O)CC[C@]5(C)[C@H]4CC[C@]3(C)NC2=O)cc(OC)c1OC`, the TGI is above 66.3 µM in test [1]; above 100 µM in [2]; above 47.5 µM in [3]; above 77.5 µM in test [4]; 42.3 µM in test [5]; above 100 µM in test [6]. Further, the TGI is above 92.3 µM in test [7], above 100 µM in test [8], above 70.8 µM in [9] and 38.1 µM in test [10].
Take `CC1=NNC(N)=N/C1=C\C(Sc1ccc(Cl)cc1)c1ccc([N+](=O)[O-])cc1` (centres undefined): the TGI in [1], in test [2], in test [3], in test [4], in test [5] and in test [6] was above 100 µM throughout. Further, the TGI in [7], in test [8], in [9] and in [10] was above 100 µM each time.
On to `O=C(NI1OC(=O)c2ccccc21)c1ccc(Cl)cc1`, for which the TGI in [1], in [2], in [3], in test [4], in test [5] and in test [6] was above 100 µM in each case. For the same compound, the TGI in test [7], in [8], in [9] and in test [10] was above 100 µM throughout.
For `NC(N)=NCCC[C@H](N)C(=O)NCC(=O)N[C@@H](CC(=O)O)c1ncc(NC(=O)C(F)(F)F)o1`, the TGI in test [1], in test [2], in test [3], in test [4], in test [5] and in test [6] was above 25 µM throughout. The TGI in test [7], in [8], in [9] and in test [10] was above 25 µM each time.
Take `O=C1/C(=C/c2ccc([N+](=O)[O-])cc2)C(=O)N(c2ccccc2)C1c1ccccc1` (centres undefined): the TGI in [1], in test [2], in [3], in test [4], in [5] and in test [6] was above 10 µM each time. Moreover, the TGI in test [7], in [8], in test [9] and in [10] was above 10 µM in each case.
Regarding `O=C(c1ccc(N=Cc2ccccc2O)cc1)c1ccc(N=Cc2ccccc2O)cc1`, the TGI in [1], in [2], in [3], in [4], in [5] and in test [6] was above 100 µM in each case. Further, the TGI in [7], in test [8] and in [10] was above 100 µM throughout.
With `CCOC(=O)/C=C(/C(=O)OCC)n1ccc(=O)n(Cc2cn(COCCOC(C)=O)nn2)c1=O`, the TGI in [1] was 80.8 µM; in test [2] it was 35.1 µM; in [3], 75.4 µM; in test [4], 28.3 µM; in [5] it was 56.2 µM; in test [6], 41.9 µM. The TGI was above 100 µM in test [7], 30 µM in test [9] and 31.9 µM in test [10].

The values above are taken from PubChem BioAssay (NCI).
